Reference: patent publication US20110262451A1, “MODULATORS OF ISOVALERYL-COENZYME A DEHYDROGENASE IN THE TREATMENT OF ACNE, OF SEBORRHOEIC DERMATITIS OR OF HYPERSEBORRHOEA” (priority 2008, published 2011)

Key:
[1] = tested on: isovaleryl-coenzyme A dehydrogenase; settings: cited from earlier work
PPARγ = assay: qRT-PCR expression of PPARγ in rat sebaceous gland (epidermal split) after topical PPARgamma agonist; type: in vivo; settings: topical 1% in acetone, T = 96 h, female FUZZY rat, relative induction versus carrier group, standardized to 18S
Protocol: (§1) • Strain: Ico: Hsd: FUZZY-fz • Gender: female • Age: 10 weeks Number per batch: 40 (8 animals per group) Treatment: Route of administration: topical • Compound/batch: PPARgamma agonist (rosiglitazone) • Doses: 1% • Carrier: acetone (001) • Duration 96 hours Method of evaluation: The animals are weighed at the beginning and at the end of the study. Skin biopsies are taken (6 samples of skin excised per rat) in order to analyze the expression of the genes (RNA extraction, reverse transcriptas and real-time PCR). The samples are stored overnight at 4° C. before incubation in 1M sodium bromide (NaBr) for 2 hours at 37° C. After incubation, the samples are separated into epidermis or dermis. The epidermal samples are stored at […] Under these conditions, the sebaceous glands are in the epidermal split. PCRs are carried out, beginning with the cDNAs originating from the epidermal splits containing sebaceous glands from control rats or rats treated with the PPARγ agonist: the mRNA is extracted using a column and quantified. The quality of the mRNAs is measured and is represented by the 18S/28S ratio. The results are standardized with respect to 18S expressed as relative induction versus untreated animals (carrier group). The statistical analysis is obtained using internal software based on a modified Monte Carlo statistical analysis.

IVD = assay: qRT-PCR expression of IVD in rat sebaceous gland (epidermal split) after topical PPARgamma agonist; type: in vivo; settings: topical 1% in acetone, T = 96 h, female FUZZY rat, relative induction versus carrier group, standardized to 18S
Protocol: as §1

Question: For `C=C1C[C@@H]1C[C@H](N)C(=O)O` [hypoglycine A], which “Inhibition of isovaleryl-coenzyme A dehydrogenase” value [1] is on record?
Answer: inhibitor

Question: For `COCCOCOc1ccc2cc(C(=O)N(C)Cc3cccc(-c4ccc(CC5SC(=O)NC5=O)cc4)c3)ccc2c1` (stereo not drawn) [PPARgamma agonist, 6-(2-methoxyethoxy-methoxy)naphthalene-2-carboxylic acid [4′-(2,4-dioxothiazolidin-5-ylmethyl)biphenyl-3-ylmethyl]methyl-amide], which “Induction factor (PPARγ)” value (PPARγ) is on record?
Answer: 0.11

Question: And the “Induction factor (IVD)” value (IVD)?
Answer: 0.11
